Measurements taken from ChEMBL document CHEMBL1201862, “PubChem BioAssay data set” (2004).
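Tested at 5 concentrations; 48 h exposure; 96-well plates; endpoints linearly interpolated, else capped at highest concentration. The concentration for 50% growth inhibition is given as GI50.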 Activity calls are given as the source filed them. Rule as the data show it: active = GI50 up to about 1.1 µM and inactive = higher.

Experiments:
Test in all cases: NCI tumour cell line growth inhibition, 48 h
HCC 2998 = system: HCC 2998
SR = system: SR
HOP-92 = system: HOP-92
OVCAR-3 = system: OVCAR-3
KM12 = system: KM12
NCI-H522 = system: NCI-H522
DU-145 = system: DU-145
UACC-257 = system: UACC-257
A498 = system: A498
SNB-75 = system: SNB-75
UACC-62 = system: UACC-62
CAKI-1 = system: CAKI-1
TK-10 = system: TK-10
SK-OV-3 = system: SK-OV-3
UO-31 = system: UO-31
Hs-578T = system: Hs-578T
BT-549 = system: BT-549
PC-3 = system: PC-3
SW-620 = system: SW-620
ACHN = system: ACHN
RPMI-8226 = system: RPMI-8226
OVCAR-4 = system: OVCAR-4
SN12C = system: SN12C
HL-60 = system: HL-60
SNB-19 = system: SNB-19
CCRF-CEM = system: CCRF-CEM
SF-539 = system: SF-539
OVCAR-5 = system: OVCAR-5
MDA-MB-435 = system: MDA-MB-435
IGROV-1 = system: IGROV-1
NCI/ADR-RES = system: NCI/ADR-RES
Malme-3M = system: Malme-3M
COLO 205 = system: COLO 205
MDA-N = system: MDA-N
HT-29 = system: HT-29
SF-268 = system: SF-268
K562 = system: K562
NCI-H460 = system: NCI-H460
MDA-MB-231 = system: MDA-MB-231
NCI-H226 = system: NCI-H226
A549 = system: A549
NCI-H23 = system: NCI-H23
HCT-116 = system: HCT-116
MOLT-4 = system: MOLT-4
M14 = system: M14
OVCAR-8 = system: OVCAR-8
SK-MEL-2 = system: SK-MEL-2
HOP-62 = system: HOP-62
LOX IMVI = system: LOX IMVI
EKVX = system: EKVX
T47D = system: T47D
U-251 = system: U-251
MCF7 = system: MCF7
SK-MEL-28 = system: SK-MEL-28
HCT-15 = system: HCT-15
SF-295 = system: SF-295
RXF 393 = system: RXF 393
786-0 = system: 786-0
SK-MEL-5 = system: SK-MEL-5
LXFL 529 = system: LXFL 529
M19-MEL = system: M19-MEL
DMS-273 = system: DMS-273
KM-20L2 = system: KM-20L2
SNB-78 = system: SNB-78
DLD-1 = system: DLD-1
DMS-114 = system: DMS-114

CN(C)P(=O)(Oc1ccc(CC(NC(=O)OCc2ccccc2)C(=O)OCc2ccccc2)cc1)N(C)C (configuration not stated)
GI50 (HCC 2998): 18.3 µM (inactive) | GI50 (SR): 4.56 µM (inactive) | GI50 (HOP-92): 17.8 µM (inactive) | GI50 (OVCAR-3): 3.43 µM (inactive) | GI50 (KM12): 20 µM (inactive) | GI50 (NCI-H522): 13.9 µM (inactive) | GI50 (DU-145): 15.7 µM (inactive) | GI50 (UACC-257): 21.4 µM (inactive) | GI50 (A498): 19.4 µM (inactive) | GI50 (SNB-75): 17.2 µM (inactive) | GI50 (UACC-62): 15.2 µM (inactive) | GI50 (CAKI-1): 17.6 µM (inactive) | GI50 (TK-10): 21.7 µM (inactive) | GI50 (SK-OV-3): 17.8 µM (inactive) | GI50 (UO-31): 18.5 µM (inactive) | GI50 (Hs-578T): 24.4 µM (inactive) | GI50 (BT-549): 17.1 µM (inactive) | GI50 (PC-3): 15.2 µM (inactive) | GI50 (SW-620): 18.2 µM (inactive) | GI50 (ACHN): 18.5 µM (inactive) | GI50 (RPMI-8226): 2.77 µM (inactive) | GI50 (OVCAR-4): 20.7 µM (inactive) | GI50 (SN12C): 15.1 µM (inactive) | GI50 (HL-60): 13.2 µM (inactive) | GI50 (SNB-19): 20 µM (inactive) | GI50 (CCRF-CEM): 2.43 µM (inactive) | GI50 (SF-539): 22.3 µM (inactive) | GI50 (OVCAR-5): 20 µM (inactive) | GI50 (MDA-MB-435): 12.2 µM (inactive) | GI50 (IGROV-1): 17.2 µM (inactive) | GI50 (NCI/ADR-RES): 17.9 µM (inactive) | GI50 (Malme-3M): 17.3 µM (inactive) | GI50 (COLO 205): 20.9 µM (inactive) | GI50 (MDA-N): 16.8 µM (inactive) | GI50 (HT-29): 10.1 µM (inactive) | GI50 (SF-268): 13.4 µM (inactive) | GI50 (K562): 22.7 µM (inactive) | GI50 (NCI-H460): 21 µM (inactive) | GI50 (MDA-MB-231): 17.5 µM (inactive) | GI50 (NCI-H226): 26.4 µM (inactive) | GI50 (A549): 19.2 µM (inactive) | GI50 (NCI-H23): 14.1 µM (inactive) | GI50 (HCT-116): 15.9 µM (inactive) | GI50 (MOLT-4): 3.35 µM (inactive) | GI50 (M14): 13.4 µM (inactive) | GI50 (OVCAR-8): 15.9 µM (inactive) | GI50 (SK-MEL-2): 15.6 µM (inactive) | GI50 (HOP-62): 17.1 µM (inactive) | GI50 (LOX IMVI): 16 µM (inactive) | GI50 (EKVX): 15.7 µM (inactive) | GI50 (T47D): 21 µM (inactive) | GI50 (U-251): 13.8 µM (inactive) | GI50 (MCF7): 12.4 µM (inactive) | GI50 (SK-MEL-28): 16.8 µM (inactive) | GI50 (HCT-15): 17.4 µM | GI50 (SF-295): 18.2 µM (inactive) | GI50 (RXF 393): 17.5 µM (inactive) | GI50 (786-0): 4.94 µM (inactive) | GI50 (SK-MEL-5): 20.7 µM (inactive)

N#Cc1ccc(C(C2C(=O)NC(=O)NC2=O)C2C(=O)NC(=O)NC2=O)cc1
GI50 (HCC 2998): > 100 µM (inactive) | GI50 (SR): > 100 µM (inactive) | GI50 (HOP-92): > 100 µM (inactive) | GI50 (OVCAR-3): > 100 µM (inactive) | GI50 (KM12): > 100 µM (inactive) | GI50 (NCI-H522): > 100 µM (inactive) | GI50 (UACC-257): > 100 µM (inactive) | GI50 (LXFL 529): > 100 µM (inactive) | GI50 (UACC-62): > 100 µM (inactive) | GI50 (M19-MEL): > 100 µM (inactive) | GI50 (CAKI-1): > 100 µM (inactive) | GI50 (TK-10): > 100 µM (inactive) | GI50 (SK-OV-3): > 100 µM (inactive) | GI50 (UO-31): > 100 µM (inactive) | GI50 (SW-620): > 100 µM (inactive) | GI50 (ACHN): > 100 µM (inactive) | GI50 (RPMI-8226): > 100 µM (inactive) | GI50 (OVCAR-4): > 100 µM (inactive) | GI50 (SN12C): > 100 µM (inactive) | GI50 (HL-60): > 100 µM (inactive) | GI50 (DMS-273): > 100 µM (inactive) | GI50 (SNB-19): > 100 µM (inactive) | GI50 (CCRF-CEM): > 100 µM (inactive) | GI50 (SF-539): > 100 µM (inactive) | GI50 (OVCAR-5): > 100 µM (inactive) | GI50 (IGROV-1): > 100 µM (inactive) | GI50 (Malme-3M): > 100 µM (inactive) | GI50 (COLO 205): > 100 µM (inactive) | GI50 (HT-29): > 100 µM (inactive) | GI50 (SF-268): > 100 µM (inactive) | GI50 (K562): 77.1 µM (inactive) | GI50 (NCI-H460): > 100 µM (inactive) | GI50 (NCI-H226): > 100 µM (inactive) | GI50 (A549): > 100 µM (inactive) | GI50 (NCI-H23): > 100 µM (inactive) | GI50 (HCT-116): > 100 µM (inactive) | GI50 (KM-20L2): > 100 µM (inactive) | GI50 (MOLT-4): > 100 µM (inactive) | GI50 (M14): > 100 µM (inactive) | GI50 (OVCAR-8): > 100 µM (inactive) | GI50 (SK-MEL-2): > 100 µM (inactive) | GI50 (HOP-62): > 100 µM (inactive) | GI50 (LOX IMVI): > 100 µM (inactive) | GI50 (EKVX): > 100 µM (inactive) | GI50 (U-251): > 100 µM (inactive) | GI50 (SK-MEL-28): > 100 µM (inactive) | GI50 (HCT-15): > 100 µM | GI50 (SF-295): > 100 µM (inactive) | GI50 (786-0): > 100 µM (inactive) | GI50 (SK-MEL-5): > 100 µM (inactive)

Cc1cccc(CC(C)(C)C)c1NC(=O)C(=O)C(C(=O)c1ccc2ccccc2c1)C1OC(=O)c2ccccc21 (configuration not stated)
GI50 (HCC 2998): 12.1 µM (inactive) | GI50 (SR): 3.72 µM (inactive) | GI50 (HOP-92): 1.14 µM (inactive) | GI50 (OVCAR-3): 58.5 µM (inactive) | GI50 (KM12): 14.5 µM (inactive) | GI50 (NCI-H522): 9.53 µM (inactive) | GI50 (UACC-257): 12 µM (inactive) | GI50 (A498): 13.2 µM (inactive) | GI50 (LXFL 529): 7.01 µM (inactive) | GI50 (UACC-62): 7.52 µM (inactive) | GI50 (M19-MEL): 14.6 µM (inactive) | GI50 (CAKI-1): 19.2 µM (inactive) | GI50 (SK-OV-3): 26.5 µM (inactive) | GI50 (UO-31): 16 µM (inactive) | GI50 (SW-620): 6.78 µM (inactive) | GI50 (ACHN): 18 µM (inactive) | GI50 (RPMI-8226): 10.1 µM (inactive) | GI50 (OVCAR-4): 41.5 µM (inactive) | GI50 (SN12C): 15.8 µM (inactive) | GI50 (SNB-19): 10.6 µM (inactive) | GI50 (SF-539): 2.95 µM (inactive) | GI50 (OVCAR-5): 15.2 µM (inactive) | GI50 (IGROV-1): 16.7 µM (inactive) | GI50 (Malme-3M): 10.8 µM (inactive) | GI50 (COLO 205): 15.4 µM (inactive) | GI50 (HT-29): 20.2 µM (inactive) | GI50 (SF-268): 8.53 µM (inactive) | GI50 (NCI-H460): 4.13 µM (inactive) | GI50 (NCI-H226): 2.4 µM (inactive) | GI50 (A549): 12.4 µM (inactive) | GI50 (SNB-78): 11.5 µM (inactive) | GI50 (DLD-1): 14 µM (inactive) | GI50 (NCI-H23): 6.35 µM (inactive) | GI50 (HCT-116): 6.73 µM (inactive) | GI50 (M14): 27.2 µM (inactive) | GI50 (OVCAR-8): 6.58 µM (inactive) | GI50 (SK-MEL-2): 14.4 µM (inactive) | GI50 (HOP-62): 15.4 µM (inactive) | GI50 (LOX IMVI): 11.5 µM (inactive) | GI50 (EKVX): 20.7 µM (inactive) | GI50 (U-251): 4.79 µM (inactive) | GI50 (SK-MEL-28): 5.58 µM (inactive) | GI50 (HCT-15): 15.3 µM | GI50 (SF-295): 4.55 µM (inactive) | GI50 (RXF 393): 3.4 µM (inactive) | GI50 (786-0): 7.23 µM (inactive) | GI50 (SK-MEL-5): 13.1 µM (inactive) | GI50 (DMS-114): 10.4 µM (inactive)
